Experimental data taken from patent publication EP0987025A1, “Pharmaceitical composition or composition package containing a pyrimidine nucleoside analogue and a purine nucleoside analogue” (priority 1998, dated 2000).
Read-outs that look alike come from different tables or passages of the source.

Experiments:
[1] = tested on: mitochondrial DNA; experiment: Determination of mitochondrial DNA content; format: in vivo, C57BL/6 mice; conditions: treatment C; vs. untreated mice; 10 weeks after infection; not statistically significant
Source text: To detect the mitochondrial DNA a 1544-bp mitochondrial DNA fragment was used as a probe. The mitochondrial DNA probe (kindly provided by Dr. Gadaleta, University of Bari, Italy) spans the region from nucleotide 2578 to 4122 in the complete human mitochondrial DNA. As a result of the high homology between human and mouse mitochondrial DNA this probe recognizes human and mouse sequences equally well (data not shown) (Bibb M.J., Van Etten R.A., Wright C.T., Walberg M.W., Clayton D.A., "Sequence and gene organization of mouse mitochondrial DNA.", Cell 1981; 26:167-80).
Total cellular DNA (4 µg) was digested with the restriction enzyme BamHI (Boehringer, Milan, Italy), analyzed on 0.8% agarose gel, blotted and hybridized with the 1544-bp mitochondrial probe (Brandi G., Casabianca A., Schiavano G.F., et al., "Efficacy and toxicity of long-term administration of 2',3'-dideoxycytidine in the LP-BM5 murine induced immunodeficiency model.", Antiviral Chem. Chemother. 1995; 6:153-61.). […]
Finally, the long term toxicity of Fludara in MAIDS was evaluated. […] Thus, the mitochondrial DNA content in Fludara treated mice was evaluated and only treatment C causes a slight reduction of mitochondrial DNA content (20% vs. untreated mice) although this was not statistically significant. […] The relative amount of mt DNA was determined as described in experimental procedures. […]

[2] = tested on: LP-BM5; format: in vivo, C57BL/6 mice; conditions: for Lymphad. (% inh.) / Splenom. (% inh.): about 4 months from infection
Source text: LP-BM5 virus was provided by Robert Yetter (Veternas Administration Hospital, Baltimore, MD) and was maintained in a persistently infected SC- 1 cell line as described (Hosier D.E., Yetter R.A., Morse H.C. III, "Functional T lymphocytes are required for a murine retrovirus induced immunodeficiency disease (MAIDS)", J. Exp. Med. 1987; 165:1737-42). C57BL/6 female mice were purchased from Nossan, Milan, Italy and were used at 5 weeks of age. Animals were infected by means of two successive intraperitoneal injections at 24-hr intervals. In the experiments reported three different virus preparations were used.
Mice were housed at 22±1°C with a 12-hr light-dark cycle, 60±5% humidity, and 12 air changes/hr.
First, the efficacy of 2-fluoro-ara-AMP (F-araAMP, Fludara) in inhibiting murine AIDS (MAIDS), a disease characterized by a lymphoproliferative disorder (lymphadenopathy and splenomegaly), associated with severe immunodeficiency and hypergammaglobulinemia, was evaluated. The disease develops in some strains of mice (C57BL/6) that are infected with a murine leukemia virus mixture termed LP-BM5. In the first preliminary experiments (after about 4 months from infection) LP-BMS infected animals were treated with three different concentrations of F-ara-AMP: 0.065 mg/mouse, 0.325 mg/mouse, 0.650 mg/mouse. The animals of each group were treated intraperitoneally for 3 days a week and for 3 weeks. At the end of the treatment animals were killed and splenomegaly, lymphadenopathy and hypergammaglobulinemia were evaluated.
Infected mice after 7 weeks from infection were treated intraperitoneally with Fludara as follows: • 1. 0.65 mg/mouse once a day for 4 days a week (total dose 7.8 mg/mouse); • 2. 0.65 mg/mouse twice a day for 5 days a week (total dose 19.5 mg/mouse); • 3. […]

[3] = 0.065 mg/mouse i.p. 3 days a week for 3 weeks
[4] = 0.325 mg/mouse i.p. 3 days a week for 3 weeks
[5] = 0.650 mg/mouse i.p. 3 days a week for 3 weeks
[6] = group a: 3.0 mg i.p. once a day for 5 consecutive days, 4 weeks, after 7 weeks of infection
[7] = group b: 3.0 mg i.p. twice a day for 5 consecutive days, 4 weeks, after 7 weeks of infection
[8] = group c: 10 mg in drinking water for 5 consecutive days, 4 weeks, after 7 weeks of infection
[9] = group d: 15 mg in drinking water for 5 consecutive days, 4 weeks, after 7 weeks of infection
[10] = regime 1: 0.65 mg once a day 4 days/week for 3 weeks i.p., after 7 weeks of infection
[11] = regime 2: 0.65 mg twice a day 5 days/week for 4 weeks i.p., after 7 weeks of infection
[12] = regime 3: 3.00 mg once a day 5 days/week for 3 weeks i.p., after 7 weeks of infection
[13] = treatment c: after 6 weeks of infection 3 mg F-ara-AMP i.p. twice a day, 5 consecutive days, 4 weeks, at 10 weeks after infection
[14] = treatment g: after 6 weeks of infection 3 mg F-ara-AMP i.p. twice a day 4 weeks, then interrupted, at 14 weeks after infection

Nc1nc(F)nc2c1ncn2[C@@H]1O[C@H](COP(=O)(O)O)[C@@H](O)[C@@H]1O [F-ara-AMP, Fludarabine phosphate]
reduction of mitochondrial DNA content [1]: 20%
Lymphad. (% inh.) [2, 3]: 20±15%
Splenom. (% inh.) [2, 3]: 0%
Lymphad. (% inh.) [2, 4]: 26±9%
Splenom. (% inh.) [2, 4]: 0%
Lymphad. (% inh.) [2, 5]: 49±6%
Splenom. (% inh.) [2, 5]: 0%
Lymph node w. [2, 6]: 0.54 ± 0.32 g
Spleen w. [2, 6]: 0.50 ± 0.25 g
Lymph node w. [2, 7]: 0.05 ± 0.02 g
Spleen w. [2, 7]: 0.22 ± 0.06 g
Lymph node w. [2, 8]: 0.16 ± 0.16 g
Spleen w. [2, 8]: 0.31 ± 0.09 g
Lymph node w. [2, 9]: 0.28 ± 0.23 g
Spleen w. [2, 9]: 0.28 ± 0.13 g
Lymph node w. [2, 10]: 2.63 ± 0.57 g
Spleen weight [2, 10]: 1.01 ± 0.24 g
Lymph node w. [2, 11]: 2.11 ± 0.54 g
Spleen weight [2, 11]: 0.87 ± 0.20 g
Lymph node w. [2, 12]: 1.75 ± 0.53 g
Spleen weight [2, 12]: 0.84 ± 0.17 g
Lymph node w. [2, 13]: 0.042 ± 0.018 g
Spleen w. [2, 13]: 0.130 ± 0.004 g
Lymph node w. [2, 14]: 0.290 ± 0.05 g
Spleen w. [2, 14]: 0.41 ± 0.200 g
